Results: the supplement of paper PMC10627819

Experiments:
Assay in all cases: fitness (endpoint OD595 vs no drug) (fraction); higher = more growth
S. aureus DSM 20231 = system: S. aureus DSM 20231
How it was run: (§1)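 Each well of a 384-well plate received 30 µl of culture at OD595 0.01, or 55 µl for S. pneumoniae. TSB, LB Lennox or CY served as media at 37 °C. OD595 was taken every 30 min for 14 h and corrected by subtracting the first reading. Fitness is the optical density at stationary-phase entry divided by the robust mean of no-drug controls, capped at 1.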

S. aureus Newman = system: S. aureus Newman
How it was run: as §1

B. subtilis 168 = system: B. subtilis 168
How it was run: as §1

S. pneumoniae D39V = system: S. pneumoniae D39V
How it was run: as §1

O=C(N[C@H](CO)[C@H](O)c1ccc([N+](=O)[O-])cc1)C(Cl)Cl [Chloramphenicol] + CN(C)[C@@H]1C(O)=C(C(N)=O)C(=O)[C@@]2(O)C(O)=C3C(=O)c4c(O)ccc(Cl)c4[C@@](C)(O)[C@H]3C[C@@H]12 [Chlortetracycline]
S. aureus DSM 20231, partner 0.006 µg/mL, one replicate
Conditions | fitness
first compound 0.75 µg/mL | 0.62
first compound 1.5 µg/mL | 0.558

fitness, S. aureus DSM 20231
Conditions | first compound 0.75 µg/mL | first compound 1.5 µg/mL | first compound 3 µg/mL
partner 0.012 µg/mL | 0.476 | – | 0.0949
partner 0.024 µg/mL | 0.288 | – | 0.0799
partner 0.048 µg/mL | – | 0.127 | 0.0661

O=C(N[C@H](CO)[C@H](O)c1ccc([N+](=O)[O-])cc1)C(Cl)Cl [Chloramphenicol] + CO/N=C(\C(=O)N[C@@H]1C(=O)N2C(C(=O)O)=C(COC(C)=O)CS[C@H]12)c1csc(N)n1 [Cefotaxime]
fitness
Conditions | first compound 0.75 µg/mL | first compound 1.5 µg/mL | first compound 3 µg/mL
S. aureus DSM 20231, partner 0.039 µg/mL | 0.649 | 0.629 | 0.137
S. aureus DSM 20231, partner 0.078 µg/mL | 0.672 | 0.618 | 0.191
S. aureus DSM 20231, partner 0.156 µg/mL | 0.641 | 0.599 | 0.194
S. aureus Newman, partner 0.078 µg/mL | 0.534 | 0.321 | 0.136
S. aureus Newman, partner 0.156 µg/mL | 0.406 | 0.206 | 0.0948
S. aureus Newman, partner 0.312 µg/mL | 0.198 | 0.0711 | 0.065

fitness, one replicate
Conditions | first compound 0.75 µg/mL | first compound 1.5 µg/mL | first compound 3 µg/mL
S. aureus DSM 20231, partner 0.312 µg/mL | 0.607 | 0.586 | 0.227
S. aureus Newman, partner 0.625 µg/mL | 0.0565 | 0.0229 | 0.0195
S. aureus Newman, partner 1.25 µg/mL | 0.0337 | 0.0237 | 0.0515
S. aureus Newman, partner 2.5 µg/mL | 0.0674 | 0.0266 | 0.0651

O=C(N[C@H](CO)[C@H](O)c1ccc([N+](=O)[O-])cc1)C(Cl)Cl [Chloramphenicol] + CO/N=C(\C(=O)N[C@@H]1C(=O)N2C(C(=O)[O-])=C(C[N+]3(C)CCCC3)CS[C@H]12)c1csc(N)n1 [Cefepime]
fitness
Conditions | partner 0.125 µg/mL | partner 0.25 µg/mL | partner 0.5 µg/mL
S. aureus DSM 20231, first compound 0.75 µg/mL | 0.749 | 0.83 | 0.811
S. aureus DSM 20231, first compound 1.5 µg/mL | 0.661 | 0.699 | 0.645
S. aureus DSM 20231, first compound 3 µg/mL | 0.19 | 0.22 | 0.233
S. aureus Newman, first compound 0.75 µg/mL | 0.756 | 0.685 | 0.611
S. aureus Newman, first compound 3 µg/mL | – | 0.275 | 0.234

O=C(N[C@H](CO)[C@H](O)c1ccc([N+](=O)[O-])cc1)C(Cl)Cl [Chloramphenicol] + CO[C@@]12[C@H](COC(N)=O)C3=C(C(=O)C(C)=C(N)C3=O)N1C[C@@H]1N[C@@H]12 [Mitomycin C]
fitness
Conditions | first compound 0.75 µg/mL | first compound 1.5 µg/mL | first compound 3 µg/mL
S. aureus DSM 20231, partner 0.0156 µg/mL | 0.598 | 0.431 | 0.0667
S. aureus DSM 20231, partner 0.0312 µg/mL | 0.572 | 0.367 | 0.0823
S. aureus DSM 20231, partner 0.0625 µg/mL | 0.453 | 0.245 | 0.0494
S. aureus Newman, partner 0.0156 µg/mL | 0.577 | 0.442 | 0.259
S. aureus Newman, partner 0.0312 µg/mL | 0.537 | 0.363 | 0.144
S. aureus Newman, partner 0.0625 µg/mL | 0.399 | 0.3 | 0.0938

O=C(N[C@H](CO)[C@H](O)c1ccc([N+](=O)[O-])cc1)C(Cl)Cl [Chloramphenicol] + N[C@@H]1CONC1=O [Cycloserine D]
fitness
Conditions | partner 0.375 µg/mL | partner 0.75 µg/mL | partner 1.5 µg/mL
S. aureus DSM 20231, first compound 0.75 µg/mL | 0.642 | 0.662 | 0.66
S. aureus DSM 20231, first compound 3 µg/mL | 0.0914 | 0.0972 | 0.0952
S. aureus Newman, first compound 0.75 µg/mL | 0.813 | 0.824 | 0.801
S. aureus Newman, first compound 1.5 µg/mL | 0.573 | 0.542 | 0.571
S. aureus Newman, first compound 3 µg/mL | 0.201 | 0.164 | 0.165

CCC[C@@H]1C[C@@H](C(=O)N[C@@H]([C@H]2O[C@H](SC)[C@H](O)[C@@H](O)[C@H]2O)[C@H](C)Cl)N(C)C1 [Clindamycin] + CC1=C(C(=O)O)N2C(=O)[C@@H](NC(=O)[C@H](N)c3ccccc3)[C@H]2SC1 [Cephalexin]
fitness, one replicate
Conditions | first compound 0.0039 µg/mL | first compound 0.0078 µg/mL | first compound 0.015 µg/mL | first compound 0.0156 µg/mL | first compound 0.03 µg/mL | first compound 0.06 µg/mL
B. subtilis 168, partner 0.25 µg/mL | ≥ 1 | 0.863 | – | 0.839 | – | –
B. subtilis 168, partner 0.5 µg/mL | 0.984 | 0.844 | – | 0.868 | – | –
B. subtilis 168, partner 1 µg/mL | 0.96 | 0.886 | – | 0.883 | – | –
S. pneumoniae D39V, partner 0.125 µg/mL | – | – | 0.898 | – | 0.751 | 0.642
S. pneumoniae D39V, partner 0.25 µg/mL | – | – | 0.87 | – | 0.799 | 0.667
S. pneumoniae D39V, partner 0.5 µg/mL | – | – | 0.899 | – | 0.836 | 0.645

Conditions | fitness
B. subtilis 168, first compound 0.0625 µg/mL, partner 0.125 µg/mL | 0.556
B. subtilis 168, first compound 0.0625 µg/mL, partner 0.25 µg/mL | 0.465
B. subtilis 168, first compound 0.0625 µg/mL, partner 0.5 µg/mL | 0.482
B. subtilis 168, first compound 0.125 µg/mL, partner 0.125 µg/mL | 0.376
B. subtilis 168, first compound 0.125 µg/mL, partner 0.25 µg/mL | 0.344
B. subtilis 168, first compound 0.125 µg/mL, partner 0.5 µg/mL | 0.348
B. subtilis 168, first compound 0.25 µg/mL, partner 0.125 µg/mL | 0.351
B. subtilis 168, first compound 0.25 µg/mL, partner 0.25 µg/mL | 0.335
B. subtilis 168, first compound 0.25 µg/mL, partner 0.5 µg/mL | 0.34
S. aureus Newman, first compound 0.0312 µg/mL, partner 0.5 µg/mL | 0.795
S. aureus Newman, first compound 0.0312 µg/mL, partner 1 µg/mL | 0.82
S. pneumoniae D39V, first compound 0.0125 µg/mL, partner 1 µg/mL | 0.733
S. pneumoniae D39V, first compound 0.0125 µg/mL, partner 2 µg/mL | 0.453
S. pneumoniae D39V, first compound 0.0125 µg/mL, partner 4 µg/mL | 0.0549
S. pneumoniae D39V, first compound 0.025 µg/mL, partner 1 µg/mL | 0.519
S. pneumoniae D39V, first compound 0.025 µg/mL, partner 2 µg/mL | 0.294
S. pneumoniae D39V, first compound 0.025 µg/mL, partner 4 µg/mL | 0.0703
S. pneumoniae D39V, first compound 0.05 µg/mL, partner 1 µg/mL | 0.179
S. pneumoniae D39V, first compound 0.05 µg/mL, partner 2 µg/mL | 0.114
S. pneumoniae D39V, first compound 0.05 µg/mL, partner 4 µg/mL | 0.0475
